Reference: publication PMC8963254, “Effects of Lysine N-ζ-Methylation in Ultrashort Tetrabasic Lipopeptides (UTBLPs) on the Potentiation of Rifampicin, Novobiocin, and Niclosamide in Gram-Negative Bacteria” (Antibiotics, 2022)
In brackets after ≈: the same amount, converted by molar mass. Several values for one entry are separate records, joined by “and”; a condition that tells them apart may be missing. Identical values can stand only once.

Assays:
[1] = system: P. aeruginosa PA259-96196; test: microbe, parasite or virus in culture; assay type: cell-based, Pseudomonas aeruginosa; conditions: P. aeruginosa 259-96196; for MIC: Pseudomonas aeruginosa, PA25996196, 18 h, read-out: MICs of various antibiotics
Procedure: (§1) The in vitro antibacterial activity of the UTBLPs was assessed against wild-type and clinically isolated bacterial strains. To obtain the MIC of the compounds, the microbroth dilution susceptibility assay was performed according to the Clinical and Laboratory Standards Institute (CLSI, Wayne, PA, USA) guidelines and as previously described. Briefly, the compounds at varying concentrations were incubated with bacterial inoculum (5 × 10^5 CFU/mL final concentration) at 37 °C for 18 h. Growth in the form of turbidity was confirmed using an EMax Plus microplate reader (Molecular Devices, San Jose, CA, USA) at 590 nm.

[2] = system: P. aeruginosa PA262-101856; test: microbe, parasite or virus in culture; assay type: cell-based, Pseudomonas aeruginosa; conditions: P. aeruginosa 262-101856; for MIC: Pseudomonas aeruginosa, PA262101856, 18 h, read-out: MICs of various antibiotics
Procedure: as §1

A. baumannii AB027 = test: microbe, parasite or virus in culture; assay type: cell-based, Acinetobacter baumannii; conditions: A. baumannii AB027; for MIC: Acinetobacter baumannii, 18 h, read-out: MICs of various antibiotics
Procedure: as §1

A. baumannii AB92247 = test: microbe, parasite or virus in culture; assay type: cell-based, Acinetobacter baumannii; conditions: A. baumannii 92247; for MIC: Acinetobacter baumannii, AB92247, 18 h, read-out: MICs of various antibiotics
Procedure: as §1

E. coli 94393 = test: microbe, parasite or virus in culture; assay type: cell-based, Escherichia coli; conditions: E. coli 94393 (mcr-1 +); for MIC: Escherichia coli, 18 h, read-out: MICs of various antibiotics
Procedure: as §1

E. coli 94474 = test: microbe, parasite or virus in culture; assay type: cell-based, Escherichia coli; conditions: E. coli 94474 (mcr-1 +); for MIC: Escherichia coli, 18 h, read-out: MICs of various antibiotics
Procedure: as §1

E. cloacae 118564 = test: microbe, parasite or virus in culture; assay type: cell-based, Enterobacter cloacae; conditions: E. cloacae 118564; for MIC: Enterobacter cloacae, 18 h, read-out: MICs of various antibiotics
Procedure: as §1

K. pneumoniae 113250 = test: microbe, parasite or virus in culture; assay type: cell-based, Klebsiella pneumoniae; conditions: K. pneumoniae 113250; for MIC: Klebsiella pneumoniae, 18 h, read-out: MICs of various antibiotics
Procedure: as §1

P. aeruginosa PAO1 = assay type: cell-based, Pseudomonas aeruginosa; conditions: chloramphenicol alone
Procedure: (§2) The synergy of the UTBLPs with various antibiotics was assessed using checkerboard assay as previously described. Briefly, the combination of antibiotic and OMP at varying concentrations were incubated with bacterial inoculum (5 × 10^5 CFU/mL final concentration) at 37 °C for 18 h. Growth in the form of turbidity was confirmed using an EMax Plus microplate reader (Molecular Devices, Union City, CA, USA) at 590 nm. Fractional inhibitory concentration index (FICI) was used to evaluate the interaction between the antibiotic and the OMP. FICI is the sum of the FIC of the antibiotic and the FIC of the OMP. The FIC value is calculated by dividing the MIC of the agents in combination by the MIC of the agent alone. FICI ≤ 0.5 is synergistic, 0.5 < x ≤ 4 is additive, and >4 is antagonistic.

A. baumannii ATCC 17978 = assay type: cell-based, Acinetobacter baumannii; conditions: chloramphenicol alone
Procedure: as §2

MRSA ATCC 33592 = assay type: cell-based, Staphylococcus aureus; conditions: chloramphenicol alone
Procedure: as §2

S. aureus ATCC 29213 = assay type: cell-based, Staphylococcus aureus; conditions: chloramphenicol alone
Procedure: as §2

MRSE 61589 = assay type: cell-based, Staphylococcus epidermidis; conditions: chloramphenicol alone
Procedure: as §2

MSSE 81388 = assay type: cell-based, Staphylococcus epidermidis; conditions: chloramphenicol alone
Procedure: as §2

E. faecalis ATCC 29212 = assay type: cell-based, Enterococcus faecalis; conditions: chloramphenicol alone
Procedure: as §2

E. faecium ATCC 27270 = assay type: cell-based, Enterococcus faecium; conditions: chloramphenicol alone
Procedure: as §2

| Compound | MIC [1] [µg/mL] | MIC [2] [µg/mL] | MIC (A. baumannii AB027) [µg/mL] | MIC (A. baumannii AB92247) [µg/mL] | MIC (E. coli 94393) [µg/mL] | MIC (E. coli 94474) [µg/mL] | MIC (E. cloacae 118564) [µg/mL] | MIC (K. pneumoniae 113250) [µg/mL] | further results |
| --- | --- | --- | --- | --- | --- | --- | --- | --- | --- |
| NCC[C@H](O)C(=O)N[C@@H]1C[C@H](N)[C@@H](O[C@H]2O[C@H](CN)[C@@H](O)[C@H](O)[C@H]2O)[C@H](O)[C@H]1O[C@H]1O[C@H](CO)[C@@H](O)[C@H](N)[C@H]1O [AMK, amikacin] | > 64 | > 64 | > 64 | < 1 | 2 (≈ 3.42 µM) | 2 (≈ 3.42 µM) | 2 (≈ 3.42 µM) | ≤ 1 | – |
| C[C@H]1[C@H](NC(=O)/C(=N\OC(C)(C)C(=O)O)c2csc(N)n2)C(=O)N1S(=O)(=O)O [AZT, aztreonam] | 32 (≈ 73.5 µM) | 32 (≈ 73.5 µM) | – | – | ≤ 0.12 | ≤ 0.12 | ≤ 0.12 | ≤ 0.12 | – |
| CC(C)(O/N=C(\C(=O)N[C@@H]1C(=O)N2C(C(=O)[O-])=C(C[n+]3ccccc3)CS[C@H]12)c1csc(N)n1)C(=O)O [CAZ, ceftazidime] | 512 (≈ 937 µM) | 16 (≈ 29.3 µM) | – | – | ≤ 0.25 | 0.5 (≈ 0.915 µM) | 0.5 (≈ 0.915 µM) | 0.5 (≈ 0.915 µM) | – |
| Cc1nnc(SCC2=C(C(=O)O)N3C(=O)[C@@H](NC(=O)Cn4cnnn4)[C@H]3SC2)s1 [CFZ, cefazolin] | > 128 | > 128 | > 128 | 128 (≈ 282 µM) | 1 (≈ 2.2 µM) | 4 (≈ 8.8 µM) | > 128 | 1 (≈ 2.2 µM) | – |
| CO/N=C(\C(=O)N[C@@H]1C(=O)N2C(C(=O)[O-])=C(C[N+]3(C)CCCC3)CS[C@H]12)c1csc(N)n1 [CPM, cefepime] | > 64 | 32 (≈ 66.6 µM) | > 128 | 4 (≈ 8.32 µM) | ≤ 0.25 | ≤ 0.25 | 0.25 (≈ 0.52 µM) | 1 (≈ 2.08 µM) | – |
| O=C(N[C@H](CO)[C@H](O)c1ccc([N+](=O)[O-])cc1)C(Cl)Cl [Chloramphenicol, chloramphenicol, reference compound] | 1020 (≈ 3170 µM) | 2050 (≈ 6340 µM) | 128 (≈ 396 µM) | – | 4 (≈ 12.4 µM) | 4 (≈ 12.4 µM) | – | 4 (≈ 12.4 µM) | MICantibiotic (P. aeruginosa PAO1): 32 µg/mL and 16 µg/mL; MICantibiotic (A. baumannii ATCC 17978): 128 µg/mL and 64 µg/mL; MICchloramphenicol (MRSA ATCC 33592): 64 µg/mL; MICchloramphenicol (S. aureus ATCC 29213): 8 µg/mL and 16 µg/mL; MICchloramphenicol (MRSE 61589): 8 µg/mL and 16 µg/mL; MICchloramphenicol (MSSE 81388): 4 µg/mL and 8 µg/mL; MICchloramphenicol (E. faecalis ATCC 29212): 4 µg/mL and 8 µg/mL; MICchloramphenicol (E. faecium ATCC 27270): 8 µg/mL and 4 µg/mL |
| C[C@H]1c2cccc(O)c2C(=O)C2=C(O)[C@]3(O)C(=O)C(C(N)=O)=C(O)[C@@H](N(C)C)[C@@H]3[C@@H](O)[C@@H]21 [DOX, doxycycline] | 32 (≈ 72 µM) | 1020 (≈ 2300 µM) | – | – | 4 (≈ 9 µM) | > 32 | 4 (≈ 9 µM) | 2 (≈ 4.5 µM) | – |
| CO[C@@]1(NC(=O)Cc2cccs2)C(=O)N2C(C(=O)O)=C(COC(N)=O)CS[C@@H]21 [FOX, cefoxitin] | > 32 | > 32 | – | 32 (≈ 74.9 µM) | 4 (≈ 9.36 µM) | 16 (≈ 37.4 µM) | > 32 | 1 (≈ 2.34 µM) | – |
| CNC(C)C1CCC(N)C(OC2C(N)CC(N)C(OC3OCC(C)(O)C(NC)C3O)C2O)O1 (stereo not shown) [GEN, gentamicin] | > 32 | > 32 | 32 (≈ 67 µM) | – | ≤ 0.5 | 16 (≈ 33.5 µM) | 1 (≈ 2.09 µM) | ≤ 0.5 | – |
| C[C@@H](O)[C@H]1C(=O)N2C(C(=O)O)=C(S[C@@H]3CN[C@H](C(=O)N(C)C)C3)[C@H](C)[C@H]12 [MER, meropenem] | 1020 (≈ 2670 µM) | 32 (≈ 83.4 µM) | 16 (≈ 41.7 µM) | 4 (≈ 10.4 µM) | ≤ 0.03 | ≤ 0.03 | 0.12 (≈ 0.313 µM) | ≤ 0.03 | – |
| CN(C)c1ccc(O)c2c1C[C@H]1C[C@H]3[C@H](N(C)C)C(O)=C(C(N)=O)C(=O)[C@@]3(O)C(O)=C1C2=O [MIN, minocycline] | 32 (≈ 69.9 µM) | 64 (≈ 140 µM) | 0.25 (≈ 0.546 µM) | 0.125 (≈ 0.273 µM) | 2 (≈ 4.37 µM) | 64 (≈ 140 µM) | – | 2 (≈ 4.37 µM) | – |
| COc1c(N2C[C@@H]3CCCN[C@@H]3C2)c(F)cc2c(=O)c(C(=O)O)cn(C3CC3)c12 [MOX, moxifloxacin] | > 16 | > 16 | 8 (≈ 19.9 µM) | – | 1 (≈ 2.49 µM) | 16 (≈ 39.9 µM) | 0.12 (≈ 0.299 µM) | ≤ 0.06 | – |
| CN(C)c1cc(NC(=O)CNC(C)(C)C)c(O)c2c1C[C@H]1C[C@H]3[C@H](N(C)C)C(O)=C(C(N)=O)C(=O)[C@@]3(O)C(O)=C1C2=O [TGC, tigecycline] | 32 (≈ 54.6 µM) | 32 (≈ 54.6 µM) | 4 (≈ 6.83 µM) | 0.25 (≈ 0.427 µM) | 0.25 (≈ 0.427 µM) | 1 (≈ 1.71 µM) | – | – | – |
| NC[C@H]1O[C@H](O[C@H]2[C@H](O)[C@@H](O[C@H]3O[C@H](CO)[C@@H](O)[C@H](N)[C@H]3O)[C@H](N)C[C@@H]2N)[C@H](N)C[C@@H]1O [TOB, tobramycin] | 256 (≈ 548 µM) | 1020 (≈ 2190 µM) | – | – | ≤ 0.5 | 32 (≈ 68.4 µM) | 1 (≈ 2.14 µM) | ≤ 0.5 | – |
| colistin [CST] | – | – | – | – | – | – | – | – | MICs of various antibiotics [1]: 1 µg/mL; MICs of various antibiotics [2]: 1 µg/mL; MICs of various antibiotics (A. baumannii AB027): 0.25 µg/mL; MICs of various antibiotics (A. baumannii AB92247): 4 µg/mL; MICs of various antibiotics (E. coli 94393): 4 µg/mL; MICs of various antibiotics (E. coli 94474): 16 µg/mL; MICs of various antibiotics (E. cloacae 118564): > 16 µg/mL; MICs of various antibiotics (K. pneumoniae 113250): > 16 µg/mL |
